Patent US20240033502A1 (Wesbot, LLC, priority 2022, published 2024)
Values joined by “and” are separate entries in the source; they are usually repeats but may differ in a detail not shown here. Equal values may be shown once. Read-outs that look alike come from different tables or passages of the source.

Key:
E. coli [1] = settings: 0.5 mL of 0.05 OD culture, 5 mA electric current for 30 min; triplicate experiments
Procedure: To test this an E. coli culture was grown from a single colony in LB media at 37° C., until reaching 0.05 OD. Next, 0.5 mL of this culture was treated with 5 mA of electric current for 30 min. The counting of CFU/ml before and after applying the current for 30 min was done by plating 50 and 100 μL of 1:10,000 dilution respectively on LB agar plates and incubating at 37° C. for 18-24 hrs.

E. coli [2] = test: Killing (antimicrobial) test, CFU count; assay type: cell-based, Escherichia coli
Procedure: The initial colony forming units per mL (CFU/mL) were counted by plating 50 uL of a dilution 1:10,000 of the culture on LB agar plates. Next, 3 ml of the bacterial culture were treated with 1 ml of separately generated H2O2 0.75 M such that the final concentration of H2O2 in the bacteria containing plates reached around 0.25 M. To count the bacterial survival after treatment, 100 μl of 1:10,000 dilution were plated on LB agar plates and incubated at 37° C. for 18-24 hrs. The percentage of killed bacteria was calculated using the initial CFU as 100% and subtracting the recovered CFU after treatment.

[3] = tested on: Escherichia coli (strain BW25113); settings: paper filter disks moistened with 0.75 M generated hydrogen peroxide in PBS on seeded LB agar, 37° C. for 18-24 hr, qualitative
Procedure: A plate with Lysogeny Broth (LB) Agar media was evenly seeded with a 1 Optical Density (OD) culture of Escherichia coli (strain BW25113). […] Plates were left to dry and incubated at 37° C. for 18-24 hr.

OO [hydrogen peroxide]
% Killed (%) (E. coli [1]): 99.6%
Peroxide Treated (CFU x 10^6) (E. coli [2]; 3 ml culture (0.05 OD) + 1 ml separately generated H2O2 0.75 M, final around 0.25 M, triplicate experiments): 1.2 CFU x 10^6 and 0.7 CFU x 10^6
% Killed (%) (E. coli [2]; final H2O2 around 0.25 M, initial CFU as 100%, triplicate experiments): 96.1% and 96% and 94.2%
rate at which bacteria population is killed (E. coli [2]; from triplicate antimicrobial test, Table 4): 2.5 % CFU/μmol H2O2
zone of growth inhibition [3]: disinfection in region of clearance
zone of growth inhibition ([3]; listed as H2O2): zone of growth inhibition
